Patent US8524745B2 (Allergan, Inc., priority 2011, dated 2013)

Target: T1, CCR2 (Homo sapiens, UniProt P41597)
T1 construct: expressed in transfected cells
Test: CCR2 calcium activity assay on FLIPR Tetra in HEK-Gqi5 cells stably expressing CCR2
Assay type: cell-based
Protocol: HEK-Gqi5 cells stably expressing CCR2 were cultured in (DMEM high glucose, 10% FBS, 1% PSA, 400 μg/ml geneticin and 50 μg/ml hygromycin. Appropriate positive control chemokines (MCP-1, MIP1A or RANTES) was used as the positive control agonist for screening compound-induced calcium activity assayed on the FLIPR^Tetra. The drug plates were prepared in 384-well microplates using the EP3 and the MuItiPROBE robotic liquid handling systems. Compounds were synthesized and tested for CCR2 activity.

T1 sequence (P41597 whole entry, species assumed): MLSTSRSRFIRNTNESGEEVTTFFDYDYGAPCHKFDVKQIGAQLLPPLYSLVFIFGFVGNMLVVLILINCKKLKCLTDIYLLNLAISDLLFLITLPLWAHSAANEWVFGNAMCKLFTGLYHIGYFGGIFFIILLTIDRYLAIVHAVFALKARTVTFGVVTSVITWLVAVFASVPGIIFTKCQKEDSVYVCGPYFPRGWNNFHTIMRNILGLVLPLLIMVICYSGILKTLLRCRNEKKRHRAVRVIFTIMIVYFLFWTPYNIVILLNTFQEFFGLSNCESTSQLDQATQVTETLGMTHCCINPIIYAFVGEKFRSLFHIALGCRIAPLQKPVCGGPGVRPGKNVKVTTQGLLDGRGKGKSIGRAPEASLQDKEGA

| SMILES | CCR2 % ANTAG | IC50 |
| --- | --- | --- |
| Cn1sc(=O)c2cc(S(=O)(=O)Nc3ccccc3NS(=O)(=O)c3cc(C(F)(F)F)cc(C(F)(F)F)c3)ccc21 [N-[2-({[3,5-bis(trifluoromethyl)phenyl]sulfonyl}amino)phenyl]-1-methyl-3-oxo-1,3-dihydro-2,1-benzisothiazole-5-sulfonamide] | 94% | 2.07 µM |
| COc1cccc(NS(=O)(=O)c2ccc3c(c2)c(=O)sn3C)c1NS(=O)(=O)c1cccs1 [N-{3-methoxy-2-[(2-thienylsulfonyl)amino]phenyl}-1-methyl-3-oxo-1,3-dihydro-2,1-benzisothiazole-5-sulfonamide] | 52% | – |
| Cn1sc(=O)c2cc(S(=O)(=O)Nc3ccccc3NS(=O)(=O)c3ccccc3Cl)ccc21 [N-(2-{[(2-chlorophenyl)sulfonyl]amino}phenyl)-1-methyl-3-oxo-1,3-dihydro-2,1-benzisothiazole-5-sulfonamide] | 84% | 1.35 µM |
| Cn1sc(=O)c2cc(S(=O)(=O)Nc3ccccc3NS(=O)(=O)c3ccco3)ccc21 [N-{2-[(2-furylsulfonyl)amino]phenyl}-1-methyl-3-oxo-1,3-dihydro-2,1-benzisothiazole-5-sulfonamide] | 104% | 0.744 µM |
| Cn1sc(=O)c2cc(S(=O)(=O)Nc3cc(C(F)(F)F)c(Cl)cc3NS(=O)(=O)c3cccs3)ccc21 [N-{4-chloro-2-[(2-thienylsulfonyl)amino]-5-(trifluoromethyl)phenyl}-1-methyl-3-oxo-1,3-dihydro-2,1-benzisothiazole-5-sulfonamide] | 87% | 0.522 µM |
| Cn1sc(=O)c2cc(S(=O)(=O)Nc3cccnc3NS(=O)(=O)c3cccs3)ccc21 [1-methyl-3-oxo-N-{2-[(2-thienylsulfonyl)amino]pyridin-3-yl}-1,3-dihydro-2,1-benzisothiazole-5-sulfonamide] | 83% | 1.91 µM |
| Cc1ccc(S(=O)(=O)Nc2cc(Cl)c(Cl)cc2NS(=O)(=O)c2ccc3c(c2)c(=O)sn3C)s1 [N-(4,5-dichloro-2-{[(5-methyl-2-thienyl)sulfonyl]amino}phenyl)-1-methyl-3-oxo-1,3-dihydro-2,1-benzisothiazole-5-sulfonamide] | 95% | 0.851 µM |
| COc1ccc(S(=O)(=O)Nc2ccc(Cl)cc2NS(=O)(=O)c2ccc3c(c2)c(=O)sn3C)cc1 [N-(5-chloro-2-{[(4-methoxyphenyl)sulfonyl]amino}phenyl)-1-methyl-3-oxo-1,3-dihydro-2,1-benzisothiazole-5-sulfonamide] | 78% | 0.21 µM |
| Cn1sc(=O)c2cc(S(=O)(=O)NC3CCCN(S(=O)(=O)c4cccs4)C3)ccc21 (stereo not shown) [1-methyl-3-oxo-N-[1-(2-thienylsulfonyl)piperidin-3-yl]-1,3-dihydro-2,1-benzisothiazole-5-sulfonamide] | 39% | – |
| Cn1sc(=O)c2cc(S(=O)(=O)Nc3cc(Br)ccc3NS(=O)(=O)c3cccs3)ccc21 [N-{5-bromo-2-[(2-thienylsulfonyl)amino]phenyl}-1-methyl-3-oxo-1,3-dihydro-2,1-benzisothiazole-5-sulfonamide] | 100% | 0.537 µM |
| Cn1sc(=O)c2cc(C(=O)Nc3cc(Cl)ccc3NS(=O)(=O)c3cccs3)ccc21 [N-{5-chloro-2-[(2-thienylsulfonyl)amino]phenyl}-1-methyl-3-oxo-1,3-dihydro-2,1-benzisothiazole-5-carboxamide] | 99% | – |
| CCOc1ccc(S(=O)(=O)Nc2ccc(Cl)cc2NS(=O)(=O)c2ccc3c(c2)c(=O)sn3C)cc1 [N-(5-chloro-2-{[(4-ethoxyphenyl)sulfonyl]amino}phenyl)-1-methyl-3-oxo-1,3-dihydro-2,1-benzisothiazole-5-sulfonamide] | 84% | 2.79 µM |
| COc1ccc(S(=O)(=O)Nc2ccc(Cl)cc2NS(=O)(=O)c2ccc3c(c2)c(=O)sn3C)cc1OC [N-(5-chloro-2-{[(3,4-dimethoxyphenyl)sulfonyl]amino}phenyl)-1-methyl-3-oxo-1,3-dihydro-2,1-benzisothiazole-5-sulfonamide] | 93% | 1.02 µM |
| Cn1sc(=O)c2cc(S(=O)(=O)Nc3ccccc3NS(=O)(=O)c3ccc(Cl)c(Cl)c3)ccc21 [N-(2-{[(3,4-dichlorophenyl)sulfonyl]amino}phenyl)-1-methyl-3-oxo-1,3-dihydro-2,1-benzisothiazole-5-sulfonamide] | 92% | 0.522 µM |
| Cn1sc(=O)c2cc(S(=O)(=O)Nc3cccc(Cl)c3NS(=O)(=O)c3cccs3)ccc21 [N-{3-chloro-2-[(2-thienylsulfonyl)amino]phenyl}-1-methyl-3-oxo-1,3-dihydro-2,1-benzisothiazole-5-sulfonamide] | 100% | 0.823 µM |
| COC(=O)c1ccc(NS(=O)(=O)c2cccs2)c(NS(=O)(=O)c2ccc3c(c2)c(=O)sn3C)c1 [methyl 3-{[(1-methyl-3-oxo-1,3-dihydro-2,1-benzisothiazol-5-yl)sulfonyl]amino}-4-[(2-thienylsulfonyl)amino]benzoate] | 76% | 2.41 µM |

| SMILES | CCR2 % ANTAG | IC50 |
| --- | --- | --- |
| Cn1sc(=O)c2cc(S(=O)(=O)NCc3ccccc3NS(=O)(=O)c3cccs3)ccc21 [1-methyl-3-oxo-N-{2-[(2-thienylsulfonyl)amino]benzyl}-1,3-dihydro-2,1-benzisothiazole-5-sulfonamide] | 56% | 2.18 µM |
| Cn1sc(=O)c2cc(S(=O)(=O)Nc3cccc(NS(=O)(=O)c4cccs4)c3)ccc21 [1-methyl-3-oxo-N-{3-[(2-thienylsulfonyl)amino]phenyl}-1,3-dihydro-2,1-benzisothiazole-5-sulfonamide] | 23% | 2.87 µM |
| Cn1sc(=O)c2cc(S(=O)(=O)N[C@@H]3CCCC[C@@H]3NS(=O)(=O)c3ccc(Cl)c(C(F)(F)F)c3)ccc21 (relative stereo) [rel-N-[(1R,2S)-2-({[4-chloro-3-(trifluoromethyl)phenyl]sulfonyl}amino)cyclohexyl]-1-methyl-3-oxo-1,3-dihydro-2,1-benzisothiazole-5-sulfonamide] | 93% | 1.24 µM |
| Cn1sc(=O)c2cc(S(=O)(=O)Nc3cccc4c3OC(F)(F)O4)ccc21 [N-(2,2-difluoro-1,3-benzodioxol-4-yl)-1-methyl-3-oxo-1,3-dihydro-2,1-benzisothiazole-5-sulfonamide] | 80% | 1 µM |
| Cn1sc(=O)c2cc(S(=O)(=O)Nc3ccccc3NS(=O)(=O)c3ccccc3)ccc21 [1-methyl-3-oxo-N-{2-[(phenylsulfonyl)amino]phenyl}-1,3-dihydro-2,1-benzisothiazole-5-sulfonamide] | 97% | 0.887 µM |
| COc1ccc(NS(=O)(=O)c2cccs2)c(NS(=O)(=O)c2ccc3c(c2)c(=O)sn3C)c1 [N-{5-methoxy-2-[(2-thienylsulfonyl)amino]phenyl}-1-methyl-3-oxo-1,3-dihydro-2,1-benzisothiazole-5-sulfonamide] | 104% | 1.41 µM |
| Cn1sc(=O)c2cc(S(=O)(=O)Nc3ccccc3NS(=O)(=O)c3nnc[nH]3)ccc21 [1-methyl-3-oxo-N-{2-[(4H-1,2,4-triazol-3-ylsulfonyl)amino]phenyl}-1,3-dihydro-2,1-benzisothiazole-5-sulfonamide] | 90% | 1.1 µM |
| Cn1sc(=O)c2cc(S(=O)(=O)N[C@@H]3CCCC[C@@H]3NS(=O)(=O)c3cccs3)ccc21 (relative stereo) [rel-1-methyl-3-oxo-N-{(1R,2S)-2-[(2-thienylsulfonyl)amino]cyclohexyl}-1,3-dihydro-2,1-benzisothiazole-5-sulfonamide] | 65% | 2.18 µM |
| CC(C)n1sc(=O)c2cc(S(=O)(=O)Nc3cccc4c3OC(F)(F)C(F)(F)O4)ccc21 [1-isopropyl-3-oxo-N-(2,2,3,3-tetrafluoro-2,3-dihydro-1,4-benzodioxin-5-yl)-1,3-dihydro-2,1-benzisothiazole-5-sulfonamide] | 68% | 0.559 µM |
| Cn1sc(=O)c2cc(S(=O)(=O)Nc3cccc(C(F)(F)F)c3)ccc21 [1-methyl-3-oxo-N-[3-(trifluoromethyl)phenyl]-1,3-dihydro-2,1-benzisothiazole-5-sulfonamide] | 84% | – |
| Cn1sc(=O)c2cc(S(=O)(=O)Nc3cc(C(F)(F)F)ccc3NS(=O)(=O)c3cccs3)ccc21 [1-methyl-3-oxo-N-{2-[(2-thienylsulfonyl)amino]-5-(trifluoromethyl)phenyl}-1,3-dihydro-2,1-benzisothiazole-5-sulfonamide] | 103% | 0.701 µM |
| Cn1sc(=O)c2cc(S(=O)(=O)Nc3cc(Cl)ccc3NS(=O)(=O)c3ccc(Cl)c(Cl)c3)ccc21 [N-(5-chloro-2-{[(3,4-dichlorophenyl)sulfonyl]amino}phenyl)-1-methyl-3-oxo-1,3-dihydro-2,1-benzisothiazole-5-sulfonamide] | 97% | 1.29 µM |
| Cn1sc(=O)c2cc(S(=O)(=O)Nc3cc(Cl)ccc3NS(=O)(=O)c3ccc(O)cc3)ccc21 [N-(5-chloro-2-{[(4-hydroxyphenyl)sulfonyl]amino}phenyl)-1-methyl-3-oxo-1,3-dihydro-2,1-benzisothiazole-5-sulfonamide] | 95% | 0.491 µM |
| Cn1sc(=O)c2cc(S(=O)(=O)NC(C)(C)CNS(=O)(=O)c3cccs3)ccc21 [N-{1,1-dimethyl-2-[(2-thienylsulfonyl)amino]ethyl}-1-methyl-3-oxo-1,3-dihydro-2,1-benzisothiazole-5-sulfonamide] | 20% | 2.49 µM |
| Cc1ccc(NS(=O)(=O)c2cccs2)c(NS(=O)(=O)c2ccc3c(c2)c(=O)sn3C)c1 [1-methyl-N-{5-methyl-2-[(2-thienylsulfonyl)amino]phenyl}-3-oxo-1,3-dihydro-2,1-benzisothiazole-5-sulfonamide] | 102% | 0.377 µM |
